Marks after values point to notes of the source that are not given here. Non-standard residues stand in square brackets, D forms with d. Residues, ends and D or L forms follow the SMILES beside them.
How the values were obtained:
Format in all cases: in vivo, ICR mice
[1] = tested on: Staphylococcus aureus ATCC25923; assay: Anti-infection test of externally-applied agent on skin, viable count; settings: for viable count, Liver (1:5) / viable count, Skin (1:10) / viable count, Spleen (1:5) / viable count, Whole blood: 0.1 ml morning and evening for 7 days, n = 10; for inhibition of skin infection (in words): externally-applied agent, twice daily for 7 days, Staphylococcus aureus
Text: (§1) 1. Experimental Strains: Staphylococcus epidermidis ATCC12228 and Staphylococcus aureus ATCC25923
(§2) There are 50 male ICR mice with the weight of 20±2 g. According to their weight, they are randomly divided into 5 groups of 10 mice: negative infected control group, Bactroban positive control group, 1% concentration cream group, 1‰ concentration cream group and blank ground substance group. Each group is raised in the same plastic case. Their blank parts, heads, necks, backs and tails are marked with picric acid marking method. All the mice are raised with ordinary animal feeds in the ordinary animal houses and they could drink water freely. Alternating of light and dark is conducted every 12 hours.
(§3) There are preparation of 1% concentration, 1‰ concentration, and blank ground substance preparation (supplied by Jiangsu ProteLight Pharmaceutical & Biotechnology Co., LTD.) and Bactroban (supplied by SK&F).
(§4) (1) The bacteria strains which preserved in liquid nitrogen are inoculated to MHB plate and cultured overnight at 37° C.
(§5) (2) The solid strains are inoculated to MHB liquid medium and overnight cultured shakily at the speed of 220 rpm at 37° C.
(§6) (3) The bacterial suspension cultured overnight is diluted to 5×10^6CFU/ml and applied in reserve.
(§7) (4) Skin modeling: Mice's back are sheared and depilated by depilatory paste. After the hair off, they are abraded with 0.3 mm-long sandpaper to bleeding and injected 0.1 ml bacterial suspension with the concentration of 5×10^6CFU/ml subcutaneously.
(§8) (5) Administration: All the groups except the negative infected control group are respectively applied different cream with the dosage of 0.1 ml once respectively in the morning and evening for 7 days.
(§9) (6) After 7 days, the visceral organs, blood and infected skin of mice are collected by aseptic method to count viable bacteria.

[2] = tested on: Staphylococcus epidermidis ATCC12228; assay: as above; settings: for viable count, Liver (1:5) / viable count, Skin (1:10) / viable count, Spleen (1:5) / viable count, Whole blood: 0.1 ml morning and evening for 7 days, n = 10; for inhibition of skin infection (in words): externally-applied agent, twice daily for 7 days, Staphylococcus epidermidis
Text: as §1, §2, §3, §4, §5, §6, §7, §8, §9

Pseudomonas aeruginosa = assay: Therapeutic test of injection on mice with systemic infection, survival time; settings: for Mean survival Time: observed fourteen days; for Mean survival Time / Mortality of mice in different days after infection: n = 10
Text: (§10) There are 30 male and 30 female ICR mice with the weight ranging from 18 g to 22 g. According to their weight, they are randomly divided into 6 groups of 10 mice: blank control group, negative control group, Levofloxacin positive control group, PL-13 (SEQ ID NO: 1) high dose group, PL-13 (SEQ ID NO: 1) middle dose group and PL-13 (SEQ ID NO: 1) low dose group. Each group is raised in the same plastic case. With trinitrophenal marking method, all the mice are raised with ordinary animal feeds in the ordinary animal houses and they can drink water freely. Alternating of light and dark is conducted every 12 hours.
(§11) 2. Infected Strains: Pseudomonas aeruginosa and Staphylococcus aureus
(§12) PL-18 (SEQ ID NO: 1) freeze-dried powder injections (supplied by Jiangsu ProteLight Pharmaceutical & Biotechnology Co., LTD.), Levofloxacin Hydrochloride and Sodium Chloride Injection (supplied by Yangtze River Pharmaceutical Group) and 0.9% Sodium Chloride Injection (supplied by Chifeng Rongjitang Pharmaceutical CO., Ltd.)
(§13) (1) The preparation of bacterial suspension is the same as above.
(§14) (2) The Pseudomonas aeruginosa suspension cultured overnight is diluted to 1×10^9CFU/ml. The Staphylococcus aureus suspension cultured overnight is diluted to 1×10^8CFU/ml. They are all applied in reserve.
(§15) (3) Except the blank control group, every other mouse is injected with 0.2 ml Pseudomonas aeruginosa suspension with the concentration of 1×10^9CFU/ml or 0.2 ml Staphylococcus aureus suspension with the concentration of 1×10^8CFU/ml intraperitoneally to make model.
(§16) (4) Administration: Inject the drugs according to weight right after the model is ready. All the groups excepting the blank and the negative infected group are injected with different dosage of different injections through caudal vena twice a day successively for three days, and they are observed for fourteen days.
(§17) (5) Observe death of the animals and record their survival time.

Staphylococcus aureus = assay: as above; settings: for Mean survival Time: observed fourteen days; for Mean survival Time / Mortality of mice in different days after infection: n = 10
Text: as §10, §11, §12, §13, §14, §15, §16, §17

[3] = 30 mg/kg twice a day for three days
[4] = day 1, 30 mg/kg twice a day for three days
[5] = day 2, 30 mg/kg twice a day for three days
[6] = day 3, 30 mg/kg twice a day for three days
[7] = day 4, 30 mg/kg twice a day for three days
[8] = day 5, 30 mg/kg twice a day for three days
[9] = 0.2 mg/kg (low) caudal vena twice a day for three days
[10] = 1 mg/kg (middle) caudal vena twice a day for three days
[11] = 5 mg/kg (high) caudal vena twice a day for three days
[12] = day 1, 0.2 mg/kg (low) caudal vena twice a day for three days
[13] = day 1, 1 mg/kg (middle) caudal vena twice a day for three days
[14] = day 1, 5 mg/kg (high) caudal vena twice a day for three days
[15] = day 2, 0.2 mg/kg (low) caudal vena twice a day for three days
[16] = day 2, 1 mg/kg (middle) caudal vena twice a day for three days
[17] = day 2, 5 mg/kg (high) caudal vena twice a day for three days
[18] = day 3, 0.2 mg/kg (low) caudal vena twice a day for three days
[19] = day 3, 1 mg/kg (middle) caudal vena twice a day for three days
[20] = day 3, 5 mg/kg (high) caudal vena twice a day for three days
[21] = day 4, 0.2 mg/kg (low) caudal vena twice a day for three days
[22] = day 4, 1 mg/kg (middle) caudal vena twice a day for three days
[23] = day 4, 5 mg/kg (high) caudal vena twice a day for three days
[24] = day 5, 0.2 mg/kg (low) caudal vena twice a day for three days
[25] = day 5, 1 mg/kg (middle) caudal vena twice a day for three days
[26] = day 5, 5 mg/kg (high) caudal vena twice a day for three days

## Ac-FKKLKKLFSKLWNWK-NH2 [PL-13]
[1]; 1% externally-applied agent
  viable count, Liver (1:5): 10 CFU/plate
  viable count, Skin (1:10): 852 CFU/plate
  viable count, Spleen (1:5): 6 CFU/plate
  viable count, Whole blood: 8 CFU/plate
[1]; 1‰ externally-applied agent
  viable count, Liver (1:5): 12 CFU/plate
  viable count, Skin (1:10): 1005 CFU/plate
  viable count, Spleen (1:5): 14 CFU/plate
  viable count, Whole blood: 11 CFU/plate
[1]
  inhibition of skin infection (in words): effective
[2]; 1% externally-applied agent
  viable count, Liver (1:5): 12 CFU/plate
  viable count, Skin (1:10): 369 CFU/plate
  viable count, Spleen (1:5): 5 CFU/plate
  viable count, Whole blood: 10 CFU/plate
[2]; 1‰ externally-applied agent
  viable count, Liver (1:5): 10 CFU/plate
  viable count, Skin (1:10): 425 CFU/plate
  viable count, Spleen (1:5): 17 CFU/plate
  viable count, Whole blood: 18 CFU/plate
[2]
  inhibition of skin infection (in words): effective

## C[C@H]1COc2c(N3CCN(C)CC3)c(F)cc3c(=O)c(C(=O)O)cn1c23 [Levofloxacin, levofloxacin, reference compound]
Pseudomonas aeruginosa; [3]
  Mean survival Time: 6.4** day
Pseudomonas aeruginosa; [4]
  Mortality of mice in different days after infection: 4
Pseudomonas aeruginosa; [5]
  Mortality of mice in different days after infection: 2
Pseudomonas aeruginosa; [6]
  Mortality of mice in different days after infection: 0
Pseudomonas aeruginosa; [7]
  Mortality of mice in different days after infection: 0
Pseudomonas aeruginosa; [8]
  Mortality of mice in different days after infection: 0
Staphylococcus aureus; [3]
  Mean survival Time: 5.4** day
Staphylococcus aureus; [4]
  Mortality of mice in different days after infection: 5
Staphylococcus aureus; [5]
  Mortality of mice in different days after infection: 2
Staphylococcus aureus; [6]
  Mortality of mice in different days after infection: 0
Staphylococcus aureus; [7]
  Mortality of mice in different days after infection: 0
Staphylococcus aureus; [8]
  Mortality of mice in different days after infection: 0

## CC(=O)N[C@H](Cc1ccccc1)C(=O)N[C@H](CCCCN)C(=O)N[C@H](CCCCN)C(=O)N[C@H](CC(C)C)C(=O)N[C@H](CCCCN)C(=O)N[C@H](CCCCN)C(=O)N[C@H](CC(C)C)C(=O)N[C@H](Cc1ccccc1)C(=O)N[C@H](CO)C(=O)N[C@H](CCCCN)C(=O)N[C@H](CC(C)C)C(=O)N[C@H](Cc1c[nH]c2ccccc12)C(=O)N[C@H](CC(N)=O)C(=O)N[C@H](Cc1c[nH]c2ccccc12)C(=O)N[C@H](CCCCN)C(N)=O [PL-18] (Ac-[dF][dK][dK][dL][dK][dK][dL][dF][dS][dK][dL][dW][dN][dW][dK]-NH2)
[1]; 1% externally-applied agent
  viable count, Liver (1:5): 9 CFU/plate
  viable count, Skin (1:10): 997 CFU/plate
  viable count, Spleen (1:5): 8 CFU/plate
  viable count, Whole blood: 16 CFU/plate
[1]; 1‰ externally-applied agent
  viable count, Liver (1:5): 11 CFU/plate
  viable count, Skin (1:10): 1051 CFU/plate
  viable count, Spleen (1:5): 15 CFU/plate
  viable count, Whole blood: 12 CFU/plate
[1]
  inhibition of skin infection (in words): effective
[2]; 1% externally-applied agent
  viable count, Liver (1:5): 17 CFU/plate
  viable count, Skin (1:10): 276 CFU/plate
  viable count, Spleen (1:5): 5 CFU/plate
  viable count, Whole blood: 16 CFU/plate
[2]; 1‰ externally-applied agent
  viable count, Liver (1:5): 8 CFU/plate
  viable count, Skin (1:10): 425 CFU/plate
  viable count, Spleen (1:5): 13 CFU/plate
  viable count, Whole blood: 19 CFU/plate
[2]
  inhibition of skin infection (in words): effective
Pseudomonas aeruginosa; [9]
  Mean survival Time: 6.7** day
Pseudomonas aeruginosa; [10]
  Mean survival Time: 7.7** day
Pseudomonas aeruginosa; [11]
  Mean survival Time: 8.6** day
Pseudomonas aeruginosa; [12]
  Mortality of mice in different days after infection: 0
Pseudomonas aeruginosa; [13]
  Mortality of mice in different days after infection: 0
Pseudomonas aeruginosa; [14]
  Mortality of mice in different days after infection: 0
Pseudomonas aeruginosa; [15]
  Mortality of mice in different days after infection: 2
Pseudomonas aeruginosa; [16]
  Mortality of mice in different days after infection: 1
Pseudomonas aeruginosa; [17]
  Mortality of mice in different days after infection: 1
Pseudomonas aeruginosa; [18]
  Mortality of mice in different days after infection: 1
Pseudomonas aeruginosa; [19]
  Mortality of mice in different days after infection: 2
Pseudomonas aeruginosa; [20]
  Mortality of mice in different days after infection: 2
Pseudomonas aeruginosa; [21]
  Mortality of mice in different days after infection: 2
Pseudomonas aeruginosa; [22]
  Mortality of mice in different days after infection: 2
Pseudomonas aeruginosa; [23]
  Mortality of mice in different days after infection: 2
Pseudomonas aeruginosa; [24]
  Mortality of mice in different days after infection: 2
Pseudomonas aeruginosa; [25]
  Mortality of mice in different days after infection: 1
Pseudomonas aeruginosa; [26]
  Mortality of mice in different days after infection: 0
Pseudomonas aeruginosa; high, middle and low dose injection, systemic infection of Pseudomonas aeruginosa
  anti-infection effect (in words): very good
Staphylococcus aureus; [9]
  Mean survival Time: 6.3** day
Staphylococcus aureus; [10]
  Mean survival Time: 7.3** day
Staphylococcus aureus; [11]
  Mean survival Time: 9.9** day
Staphylococcus aureus; [12]
  Mortality of mice in different days after infection: 1
Staphylococcus aureus; [13]
  Mortality of mice in different days after infection: 1
Staphylococcus aureus; [14]
  Mortality of mice in different days after infection: 0
Staphylococcus aureus; [15]
  Mortality of mice in different days after infection: 2
Staphylococcus aureus; [16]
  Mortality of mice in different days after infection: 2
Staphylococcus aureus; [17]
  Mortality of mice in different days after infection: 1
Staphylococcus aureus; [18]
  Mortality of mice in different days after infection: 1
Staphylococcus aureus; [19]
  Mortality of mice in different days after infection: 1
Staphylococcus aureus; [20]
  Mortality of mice in different days after infection: 1
Staphylococcus aureus; [21]
  Mortality of mice in different days after infection: 2
Staphylococcus aureus; [22]
  Mortality of mice in different days after infection: 1
Staphylococcus aureus; [23]
  Mortality of mice in different days after infection: 1
Staphylococcus aureus; [24]
  Mortality of mice in different days after infection: 1
Staphylococcus aureus; [25]
  Mortality of mice in different days after infection: 1
Staphylococcus aureus; [26]
  Mortality of mice in different days after infection: 2
Staphylococcus aureus; high, middle and low dose injection, systemic infection of Staphylococcus aureus
  anti-infection effect (in words): very good

Reference: patent US9273095B2, “Antibiotic peptide and preparation method therefor and application therefor” (priority 2011, dated 2016)
